Source: patent US11401255B2, “Small molecule activators of Parkin enzyme function” (Mayo Foundation for Medical Education and Research, priority 2016, dated 2022)
Entries after “also recorded” stand apart in the source; their conditions may differ.

Legend:
[1] = target: Parkin (Homo sapiens (Human), UniProt O60260); assay: Parkin activation in human primary fibroblasts (western blot); type: cell-based; conditions: for MFN1/2 degradation and pSer65-Ub levels: 5 μM before low dose CCCP (3.5 μM); for MFN1 ubiquitylation or pSer65-Ub signals, compound treatment alone: different concentrations, 2 h, absence of CCCP
Procedure: FIGS. 15A-15H show Parkin activation in primary fibroblasts, neuronal cells and in vitro. Positive control (PC) cells were treated with DMSO and 10 μM of CCCP. Negative control (NC) cells were treated with 3.5 μM CCCP, some cells were left untreated (−). […] Vinculin was used as loading control. […] FIG. 15C: Human fibroblasts were directly converted to neurons and treated as in FIG. 15B. […] Beta III tubulin confirmed successful conversion of fibroblasts to iNeurons. FIG. 15D: Rat PC12 cells were treated as in FIG. 15A. Western blots show enhanced ubiquitylation of MFN2 and TOM70, and robust pSer65-Ub induction similar to PC, but not NC cells. FIG. 15E: In vitro E2 discharge assay. Recombinant Parkin was pre-incubated with compound 4 or DMSO as control and was mixed to Ub-loaded UbcH7. […] Control reactions were performed without PINK1 or Parkin. FIG. 15F: In vitro assay with isolated mitochondria from untreated or CCCP-treated HeLa cells lacking Parkin. Mitochondrial preparations were mixed with recombinant Parkin, E1, UbcH7, ATP and either compound 4 or DMSO as a control and incubated for the indicated times. […] Control samples were incubated in reaction mix without Parkin. FIG. 15G: Protein melting was performed with 50 ng purified Parkin mixed with SYPRO orange and DMSO as control or 500 nM compound 4. […] FIG. 15H: Statistical analysis of three independent experiments as performed in FIG. 15G. Shown in the average value+/−SD (unpaired, two-sided t-test; *** p<0.0005).
FIG. 16A: Quantification of pSer65-Ub signal using sandwich ELISA from six independent experiments performed in human fibroblast treated as described in FIG. 15A. Shown in the average−/+SD. One-way ANOVA with Tukey's posthoc test (*** p<0.0005). FIG. 16B: Human primary fibroblasts were treated with different concentrations of all five compounds (1, 2, 3, 4, and 31) for 2 h. […] Different CCCP concentrations were used as positive control. FIG. 16C: Rat PC12 cells were pretreated with 5 μM of the compounds for 2 h and then treated with low dose of CCCP (3.5 μM). Control cells were treated with DMSO and either 10 μM CCCP (PC) or 3.5 μM (NC). Some cells received no CCCP (−). […] The PINK1/Parkin product pSer65-Ub was induced by all five compounds upon low dose treatment and in positive controls. FIG. 16D: PC12 cells were differentiated by treatment with NGF (NGF+). Some cells were left undifferentiated (NGF−). Cells were treated with 5 μM of compounds or DMSO as indicated. 2 h later, low dose CCCP (3.5 μM) was added to cells treated with test compounds. DMSO controls were either treated with 3.5 μM CCCP (NC) or 10 μM CCCP (PC). Some cells were not treated with CCCP (−). Western blots probed with antibodies against MFN1 show degradation in cells treated with compounds and in the positive control. Some degradation can also be observed in the negative control. […] Beta III tubulin was used to confirm successful differentiation. Vinculin was used as loading control.
Primary fibroblasts (Cell Applications) were cultured in fibroblast growth medium (FGM): DMEM containing 10% FBS, 1% penicillin-streptomycin and 1% non-essential amino acids. Direct conversion to neurons was performed utilizing short hairpin RNA targeting polypyrimidine-tract-binding protein (shPTB), which affects proneuronal micro-RNA circuits (Xue et al., Cell (2013) 152:82-96. Cells were seeded with 40,000 cells/mL and allowed to adhere overnight. 48 h after transduction with pLKO. 1_shPTB lentivirus, positive cells were selected with 2 μg/mL puromycin in fibroblast growth medium. On day 6 media was changed to FGM containing 10 ng/mL fibroblast growth factor (FGF, Genscript). On day 8, media was changed to differentiation media (DMEM:F12 (Invitrogen), 25 μg/mL insulin, 50 μg/mL transferrin, 0.1 μM putrescine 0.03 μM Na-selenite (all Sigma-Aldrich), and 15 ng/mL FGF) containing 5% FBS. On days 10 and 12 media was replaced with differentiation media containing reduced serum (2% FBS). […]

[2] = system: wp2[pKM101]+wp2 uvrA mixed 1:2; assay: Ames Test, E. coli
Excerpt: The test used amino acid-dependent strains of Salmonella typhimurium and Escherichia coli to detect point mutations which involved substitution, addition or deletion of one or a few DNA base pairs. Point mutations were introduced in the histidine (Salmonella typhimurium) or the tryptophan (Escherichia coli) operon, making the tester strains incapable of producing these amino acids. The test detected mutations that revert the mutations present in the bacteria, restoring the functional capability to synthesize histidine or tryptophan. The revertant bacteria were detected by the ability to grow in the absence of the amino acid required by the parent test strain. A mutagenic potential of a tested compound was assessed by exposing these bacterial strains to different concentrations of the compounds and estimating number of revertant colonies grown in the absence (trace quantities) of the amino acid.
DMSO was used as the negative control.
For each experiment, tester strain cultures were grown overnight in Oxoid nutrient broth #2 at 37° C. with shaking at 235 rpm to a density of 1-2×10^9 colony forming units/mL (OD540˜2).
The tester strain (10 μL of night culture) was mixed with the test agent (10 µL of the DMSO stock) and GM liquid medium (30 μL). The obtained mixture was incubated at room temperature for 5 min in a sterile 1.5 mL tube. Then, to the tube was added 200 μL of molten top agar stored at 44° C. to prevent solidifying. After mixing with a pipette, the mixture was poured onto the surface of a GM agar plate (2.0 mL of GM agar per plate). After solidifying the top agar, the plate was inverted and incubated at 37° C. for 48 hours. Then, results were expressed as number of revertant colonies per plate.

[3] = 50 μM (row printed 100; conc. column shifted)
[4] = 100 μM (row printed 200; conc. column shifted)
[5] = 200 μM (row printed 0; conc. column shifted)

Sequence of Parkin (O60260 whole entry): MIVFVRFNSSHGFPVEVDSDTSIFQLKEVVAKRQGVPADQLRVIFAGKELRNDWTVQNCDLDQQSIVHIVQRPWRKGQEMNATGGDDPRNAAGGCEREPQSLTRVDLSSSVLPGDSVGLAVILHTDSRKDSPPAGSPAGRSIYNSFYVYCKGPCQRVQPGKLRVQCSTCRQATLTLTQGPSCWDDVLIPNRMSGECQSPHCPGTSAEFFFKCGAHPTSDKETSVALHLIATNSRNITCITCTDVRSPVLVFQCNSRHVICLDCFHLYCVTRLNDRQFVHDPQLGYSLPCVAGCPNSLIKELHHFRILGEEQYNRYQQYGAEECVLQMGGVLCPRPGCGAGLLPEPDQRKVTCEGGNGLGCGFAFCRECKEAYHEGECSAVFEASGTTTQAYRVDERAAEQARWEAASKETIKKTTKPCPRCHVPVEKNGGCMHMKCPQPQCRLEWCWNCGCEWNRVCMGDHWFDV

SMILES: O=C(Cn1cnc2c1CCCC2)Nc1ccc(-c2ccccc2)cc1 [Compound 1]
- MFN1/2 degradation and pSer65-Ub levels [1]: enhanced degradation of the substrates MFN1/2 and increase of pSer65-Ub levels; also recorded: strongest effects
- MFN1 ubiquitylation or pSer65-Ub signals, compound treatment alone [1]: did not induce MFN1 ubiquitylation or pSer65-Ub signals
- Fold increase (over baseline) [2, 3]: 0
- Mean ± SD [2, 3]: 0 ± 0 revertant colonies per plate
- Fold increase (over baseline) [2, 4]: 0
- Mean ± SD [2, 4]: 0 ± 0 revertant colonies per plate
- Fold increase (over baseline) [2, 5]: 0
- Mean ± SD [2, 5]: 0 ± 0 revertant colonies per plate

SMILES: CC(C)c1nccn1CC(=O)Nc1ccc(-c2ccccc2)cc1 [Compound 2]
- MFN1/2 degradation and pSer65-Ub levels [1]: enhanced degradation of the substrates MFN1/2 and increase of pSer65-Ub levels
- MFN1 ubiquitylation or pSer65-Ub signals, compound treatment alone [1]: did not induce MFN1 ubiquitylation or pSer65-Ub signals
- Fold increase (over baseline) [2, 3]: 0.63
- Mean ± SD [2, 3]: 2.5 ± 2.12 revertant colonies per plate
- Fold increase (over baseline) [2, 4]: 0.38
- Mean ± SD [2, 4]: 1.5 ± 0.7 revertant colonies per plate
- Fold increase (over baseline) [2, 5]: 0.5
- Mean ± SD [2, 5]: 2 ± 2.82 revertant colonies per plate

SMILES: CC(C)(C)Sc1ccc(NC(=O)Cn2ccnc2)cc1 [Compound 3]
- MFN1/2 degradation and pSer65-Ub levels [1]: enhanced degradation of the substrates MFN1/2 and increase of pSer65-Ub levels
- MFN1 ubiquitylation or pSer65-Ub signals, compound treatment alone [1]: did not induce MFN1 ubiquitylation or pSer65-Ub signals
- Fold increase (over baseline) [2, 3]: 1
- Mean ± SD [2, 3]: 4 ± 0 revertant colonies per plate
- Fold increase (over baseline) [2, 4]: 1.75
- Mean ± SD [2, 4]: 7 ± 0 revertant colonies per plate
- mutagenic activity ([2]; 200 μM): mutagenic activity
- Fold increase (over baseline) [2, 5]: >75
- Mean ± SD [2, 5]: >300 revertant colonies per plate

SMILES: O=C(Cn1ccnc1-c1ccccn1)Nc1ccc(-c2ccccc2)cc1 [Compound 4]
- MFN1/2 degradation and pSer65-Ub levels [1]: enhanced degradation of the substrates MFN1/2 and increase of pSer65-Ub levels; also recorded: strongest effects
- mitofusin ubiquitylation/degradation and pSer65-Ub signal ([1]; 5 μM for 2 h before different concentrations of CCCP): increased ubiquitylation/degradation of mitofusins and amplification of the pSer65-Ub signal
- MFN1 ubiquitylation or pSer65-Ub signals, compound treatment alone [1]: did not induce MFN1 ubiquitylation or pSer65-Ub signals
- Fold increase (over baseline) [2, 3]: 0.75
- Mean ± SD [2, 3]: 3 ± 1.41 revertant colonies per plate
- Fold increase (over baseline) [2, 4]: 0.38
- Mean ± SD [2, 4]: 1.5 ± 0.7 revertant colonies per plate
- Fold increase (over baseline) [2, 5]: 1.38
- Mean ± SD [2, 5]: 5.5 ± 2.12 revertant colonies per plate

SMILES: Cc1nc2c(c(N3CCCN(Cc4ccccc4)CC3)n1)CCCC2 [Compound 31]
- MFN1/2 degradation and pSer65-Ub levels [1]: enhanced degradation of the substrates MFN1/2 and increase of pSer65-Ub levels
- MFN1 ubiquitylation or pSer65-Ub signals, compound treatment alone [1]: did not induce MFN1 ubiquitylation or pSer65-Ub signals
- Fold increase (over baseline) [2, 3]: 1.13
- Mean ± SD [2, 3]: 4.5 ± 3.53 revertant colonies per plate
- Fold increase (over baseline) [2, 4]: 0.38
- Mean ± SD [2, 4]: 1.5 ± 0.7 revertant colonies per plate
- Fold increase (over baseline) [2, 5]: 0
- Mean ± SD [2, 5]: 0 ± 0 revertant colonies per plate
